Measured values: patent US20080140450A1, “Treatment of metabolic syndrome with norfluoxetine” (AMPLA Pharmaceuticals Inc., priority 2006, published 2008)

Tests used:
[1] = molecular target: CB1 receptor (Homo sapiens, UniProt P21554); assay: functional activity versus the CB1 receptor; settings: qualitative statement, no method or numbers given
From the text: Without wishing to be restricted by the proposal, this cannabinoid activity may mediate the utility of these compounds for the treatment of metabolic syndrome or the disorders associated with metabolic syndrome.

[2] = tested on: monoamine uptake, especially serotonin; settings: qualitative, known from U.S. Pat. No. 4,313,896; cited from earlier work

Sequence of CB1 receptor (P21554 whole entry): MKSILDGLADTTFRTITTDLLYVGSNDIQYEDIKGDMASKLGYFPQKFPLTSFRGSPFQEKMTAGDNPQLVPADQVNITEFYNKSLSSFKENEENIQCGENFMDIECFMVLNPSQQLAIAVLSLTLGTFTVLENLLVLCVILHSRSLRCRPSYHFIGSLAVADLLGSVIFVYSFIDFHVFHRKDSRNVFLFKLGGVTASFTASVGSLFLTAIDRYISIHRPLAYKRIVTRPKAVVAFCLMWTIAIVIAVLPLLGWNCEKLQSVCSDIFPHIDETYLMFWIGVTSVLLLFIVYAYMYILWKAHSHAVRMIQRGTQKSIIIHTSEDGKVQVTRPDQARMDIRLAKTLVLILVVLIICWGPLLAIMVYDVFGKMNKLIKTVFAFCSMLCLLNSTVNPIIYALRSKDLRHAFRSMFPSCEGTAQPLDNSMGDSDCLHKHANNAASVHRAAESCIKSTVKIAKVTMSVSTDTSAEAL

| Structure (SMILES) | functional activity versus the CB1 receptor (mode of action) [1] | block of monoamine uptake [2] |
| --- | --- | --- |
| CNCC[C@H](Oc1ccc(C(F)(F)F)cc1)c1ccccc1 [(S)-Fluoxetine] | inverse agonist of CB1 |  |
| CNCC[C@@H](Oc1ccc(C(F)(F)F)cc1)c1ccccc1 [(R)-fluoxetine] | antagonist of CB1 |  |
| NCCC(Oc1ccc(C(F)(F)F)cc1)c1ccccc1 (racemic) [Norfluoxetine, 3-(4-trifluoromethylphenoxy)-3-phenylpropylamine] | antagonist of CB1 | block monoamine uptake, especially serotonin |
